Test results from patent publication US6576607B1, “Methods using CNS neurite outgrowth modulators” (Acorda Therapeutics, priority 1995, dated 2003).

Key:
NMDA receptor = assay: NMDA receptor-mediated EPSPs in hippocampal slices; format: cell-based, rat; conditions: 30 μM, in the presence of CNQX
Method: NMDA receptor-mediated EPSP's were isolated by applying 30 μM of the non-NMDA blocker 6-cyano-7-nitroquinoxaline-2,3-dione (CNQX; Tocris) starting 20 minutes prior to the application of antibodies or glycopeptides.

[1] = test system: pyramidal neurons in the CA1 region of rat hippocampal slices; assay: Long term potentiation (LTP) induced by theta burst stimulation in hippocampal slices; format: cell-based; conditions: perfusion of 10 μM
Method: Transverse hippocampal slices (400 μm) from halothane-anaesthetized male Wistar rats (180-220 g) were prepared using standard techniques. Slices were maintained in an interface chamber and initially allowed to recover for 45 min. in a hyperosmolar (320 mOsm/kg) artificial cerebrospinal fluid (ACSF) at room temperature. The bath temperature was then raised to 30° C. and the medium was changed to a normotonic ACSF (307 mOsm/kg) containing (in mM): NaCl, 124.0; KCl, 2.5; MgSO24, 2.0: CaCl2, 2.5; KH2PO4, 1.25; NaHCO3, 26.0; glucose, 10; sucrose, 4; bubbled with 95% O2/5% CO2 (pH 7.4); perfusion rate: 0.75 ml/min. The Schaffer collateral/commissural fibers were stimulated by twisted platinum-iridium wires (50 μm diameter) placed in the stratum radiatum of the CA1 region. Test stimuli consisted in monophasic impulses of 100 μs duration every 30 seconds and the stimulus strength was adjusted to obtain 30% of the maximal EPSP amplitude (maximal EPSP without superimposed population spike). EPSP's were recorded from the CA1 stratum radiatum by means of 2 glass micropipettes (2 M NaCl, 1-5 MΩ) positioned about […] apart from the stimulation electrode on each side. […]

[2] = test system: mouse mesencephalon cells; assay: Mesencephalon cells cultured on L1-coated plates, stained for dopamine; format: cell-based; conditions: plates coated with laminin, 7 days
Method: An experiment was performed to further elucidate the activity of L1 with CNS nerve tissue. Specifically, aliquot samples of mouse mesencephalon cells were plated and cultured on four separate plates having media prepared as follows: the first control plate was coated with poly-L-lysine alone; a second plate was coated with poly-L-lysine and L1; a third control plate was coated with poly-L-lysine and laminin; and a fourth plate was coated with poly-L-lysine, laminin and L1. All plates received aliquot amounts of cells and were incubated under identical conditions. After 7 days, the plates were all stained for the presence of dopamine and thereafter observed.

small cerebellar neurons = assay: Neurite outgrowth of small cerebellar neurons on substrate-coated L1 monoclonal antibodies; format: cell-based; conditions: neurons on L1 and antibody 557.B6
Text: To determine the domains of neural cell adhesion molecule L1 involved in neurite outgrowth, monoclonal antibodies against L1 were generated and their effects on neurite outgrowth of small cerebellar neurons in culture investigated. […] These observations indicate for the first time a distinct site on cell surface-bound L1 as a prominent signal transducing domain through which the recognition events appear to be funnelled to trigger neurite outgrowth, increase turnover of inositol phosphates and elevate intracellular levels of Ca^2+.

[3] = test system: mesencephalic neurons (DBH+); assay: Survival and neurite outgrowth of DBH+ mesencephalic neurons; format: cell-based, rat; conditions: DBH+ neurons after 7 days in vitro, mean ± SEM
Method: Soluble L1 was made in COS cells as a recombinant L1-Fc fusion protein by the procedure described in Neuron 14:57-66, 1995. The recombinant protein was purified by Protein A affinity chromatography, and was used either as a substrate coated onto plastic or as a soluble molecule added to the culture medium at approximately 1-10 μg/ml. Neurite outgrowth and survival of mesencephalic neurons from day 17 rat embryos were examined in culture after 7 days in vitro maintenance. Dopaminergic neurons were recognized by immunostaining for dopamine-β-hydroxylase (DBH) and quantified using IBAS morphometric equipment. Cultures with added soluble L1-Fc were maintained on poly-DL-ornithine (PORN) and substrate-coated L1-Fc was added on top of previously coated PORN (under conditions described in Appel et al, J. Neuroscience 13:4764-4775, 1993). NCAM-Fc was used as a control.

cerebellar neurons = assay: Neurite outgrowth of small cerebellar neurons in coculture with L929 transfectants; format: cell-based, mouse; conditions: CHL1-transfected L929 cells, 20 h
Method: CHL1 activity was also tested with cerebellar neurons as set forth with reference to FIG. 29. Thus, cerebellar neurons derived from 6-7 day old mice were cultured for 20 h on CHL1-transfectants (CHL1), CHL1-transfected non-expressing L929 cells (Mock), parental L929, or L1-transfectants (L1). The results are likewise set forth in paragraphs that correspond in designation to the sub-figures within FIG. 29. […] The mean of total neurite length of three experiments is shown. Error bars are standard error of the mean. (B) CHL1 promotes neurite outgrowth also of small cerebellar neurons better than L1. The total neurite length is given as percent of L929 cells as a control (ctr). Error bars are standard error of the mean. (C) Increase of neurite outgrowth of cerebellar neurons by CHL1 affects all size classes of neurites. Cumulative frequency of distribution plot of the total neurite length of the percentage of neurons with neurites longer than or equal to a certain length x (vertical axis) was plotted as a function of neurite length x (horizontal axis).

hippocampal neurons = assay: Neurite outgrowth of hippocampal neurons in coculture with L929 transfectants; format: cell-based, rat; conditions: CHL1-transfected L929 cells, 11-12 h coculture
Method: In addition to the studies conducted and reviewed above, further experiments were conducted withy CHL1 to define its role in neurite outgrowth and the parameters of its action. Thus and as depicted and described earlier with reference to FIGS. 28A-C, hippocampal neurons were co-cultured with L929 transfectants and L929 parental cells. Particularly, hippocampal neurons derived from rats of embryonal day 18 were cultured in subconfluent monolayers of L929-transfectants or parental L929 cells. After 11-12 h of coculture the cells were fixed and labeled with monoclonal antibody 412 (recognizing the HNK-1 carbohydrate epitope) or a polyclonal antibody against NCAM. For measurement of the total neurite length only the longest neurite per each branch was determined due to the highly branched character of the neurons in these cultures. The results of the experiments are given below with letter reference to the respective figures within FIG. 28. […] Neurons were cocultured with CHL1-transfectants (CHL1) or parental L929 cells (L929) with (+AB) or without polyclonal antibodies against recombinant CHL1 (500 μg/ml of purified IgG, added 45 min after plating) and on L1-transfectants. The mean total neurite length of 4-5 independent experiments is shown. Error bars are standard error of the mean. (B) Different CHL1 lines promote neurite outgrowth better than L1. […]

N[C@H](CCCP(=O)(O)O)C(=O)O [D-AP5, D(−)-2-amino-5-phosphonopentanoic acid]
NMDA receptor-mediated EPSPs (NMDA receptor): completely suppressed | induction of LTP [1]: totally prevented

laminin
neurite outgrowth and cell number [2]: greater neurite outgrowth, but not more cells than those coated with L1

pertussis toxin
inhibition of neurite outgrowth (small cerebellar neurons): inhibit neurite outgrowth on L1 and antibody 557.B6

soluble L1: recombinant L1-Fc fusion protein made in COS cells, added to the culture medium at 1-10 μg/ml
number of neurons ([3]; per unit field): 98 ± 7 | length of neurites (total neurite length per neuron) [3]: 135 ± 27 μm

B1: CHL1: close homolog of L1, presented by CHL1-transfected L929 cells (protein)
chain: MMELPLCGRGLILSLIFLLLKLSAAEIPLSVQQVPTIVKQSYVQVAFPFDEYFQIECEAKGNPEPIFSWTKDDKPFDLSDPRIIAANNSGTFKIPNEGHISHFQGKYRCFASNRLGTAVSEEIEFIVPGVPKFPKEKIEPIDVEEGDSIVLPCNPPKGLPPLHIYWMNIELEHIEQDERVYMSQRGDLYFANVEENDSRNDYCCFAAFPKLRTIVQKMPMKLTVNSSNSIKQRKPKLLLPPAQMGSLSAKTVLKGDTLLLECFAEGLPTPHIQWSKPGSELPEGRATIEVHEKTLKIENISYQDRGNYRCTANNLLGKASHDFHVTVEEPPRWKKKPQSAVYSTGSSGILLCEAEGEPQPTIKWRLNGLPIEKHPFPGDFMFPREISFTNLLFNHTGVYQCEASNIHGTILANANIDVIDVIPLIKTKNEENYATVVGYSAFLHCEYFASPKATVVWEVADETHPLEGDRYHTHENGTLEIYRTTEEDAGSYSCWVDNAMGKAVITANLDIRNATKLRVSPKNPRIPKSHVLELYCESQCDSHLKHSLKLSWSKDGEAFEMNGTEDGRIVIDGAYLTISNITAEDQGVYSCSAQTSLDSTSEKTQVTVLGVPDPPETFTCQKDKNRSVRLLREAGDDHNSKSASTIVEFEGNREEPGKWEELTRVQGEETDVVLSLAPYVRYQFRVTAVNEVGRSHASLPSDHHETPPAAPDKNPQNIRVQASQPKEMIIKWEPLKSMEQNGPGLEYKVSWKPQGAPEEWEEEIVTNHTLRVMTPTVYAPYDVKVQAINQLGSSPDPQPVTLYSGEDYPSTAPVIQRVDVMNSTLVKVTWSSIPKETVHGLLRGYQINWWKTKSLLDGRTHPKEVNILRFSGQRNSGMVPSLDPFSEFHLTVLAYNSKGAGPESEPYIFQTPEGVPEQPSFLKVIKVDKDTATLSWGLPKKLNGNLTGYLLQYQIINDTYELGELNEINVTTPSKSSWHLSNLNSTTKYKFYLRACTSRGCGKPISEEGATLGEGSKGIRKITEGVNVTQKIHPVEVLVPGAEHIVHLMTKNWGDNDSIFQDVIETRGREYAGLYDDISTQGWFIGLMCAIALLTLILLTICFVKRNRGGKYSVKEKEDLHPDPEVQSAKDETFGEYSDSDEKPLKGSLRSLNRNMQPTESADSLVEYGEGDQSIFNEDGSFIGAYTGAKEKGSVESNGSSTATFPLRA
modifications: murine
notes: close homolog of L1, presented by CHL1-transfected L929 cells
neurite outgrowth (cerebellar neurons): promotes neurite outgrowth of small cerebellar neurons | neurite outgrowth (hippocampal neurons): Neurite outgrowth is promoted by CHL1 and inhibitable by antibodies
